{
  "source": "patent US8217071B2",
  "about": "“Use of inhibitors of the degradation of p27, in particular Argyrin and derivatives thereof, for the treatment of proliferative diseases” (Helmholtz Zentrum für Infektionsforschung GmbH, priority 2007, dated 2012)",
  "key": {"[1]": {"target": "T1, purified human 20S proteasome (Homo sapiens, UniProt P28072+P28074+Q99436)", "T1 construct": "using erythrocyte-derived 20S proteasome (Biomol International, #LP PW8720); purchased Biomol International #LP PW8720; host or cells: human erythrocytes", "assay": "Proteasome assay with purified 20S proteasome, fluorogenic peptide substrates", "type": "biochemical", "conditions": "purified human erythrocyte derived 20S proteasome", "protocol": "(§1) The expression levels of p27^kip1 were determined at the indicated timepoints by western blotting and normalized against actin expression which was used as an internal control.\nProteasome assays with purified 20S proteasome were performed as previously described (Lightcap, E. S. et al. Proteasome inhibition measurements: clinical application. Clin Chem 46, 673-83 (2000)) using erythrocyte-derived 20S proteasome (Biomol International, #LP PW8720) and fluorometric substrates Succ-LLVY-AMC, BZ-VGR-AMC and Z-Lle-AMC (Biomol International, LP PW9905) as probes according to the manufacturers instructions. Proteasome extraction from cells and tumour sections was done as previously described (Crawford, L. J. et al. Comparative selectivity and specificity of the proteasome inhibitors BzLLLCOCHO, PS-341, and MG-132. Cancer Res 66, 6379-86 (2006)). Briefly cells (MEF or MCF-7) or tissue sample homogenate (tumour sections) were re-suspended in 1 mL ATP/DTT lysis buffer (10 mmol/L Tris-HCl (pH 7.8), 5 mmol/L ATP, 0.5 mmol/L DTT, 5 mmol/L MgCl2), and incubated on ice for 10 minutes, followed by sonication for 15 seconds. […] Protein concentration of the samples was measured using a coomassie protein assay (Pierce, Rockford, Ill.)."}, "[2]": {"system": "p27^kip1", "assay": "p27^kip1 expression time course by western blotting", "type": "cell-based, human", "conditions": "SW480, HCT116 and HeLa cells", "protocol": "as §1\nImmunohistochemical staining of mouse tumour tissue, western Blotting and immunofluorescence experiments were done as previously described (Timmerbeul, I. et al. Testing the importance of p27 degradation by the SCFskp2 pathway in murine models of lung and colon cancer. Proc Natl Acad Sci USA 103, 14009-14 (2006). Kossatz, U. et al. C-terminal phosphorylation controls the stability and function of p27^kip1. Embo J 25, 5159-70 (2006).). The following antibodies were used: p27 (Cat. No. K25020-150; Transduction Labs), p21 (N20; Santa Cruz), p53 (FL-393; Santa Cruz), NfKB (C-20; Santa Cruz), Bax (P-19; Santa Cruz), Alexa fluor 488 (# A11001; Invitrogen), 20S-proteasome subunit beta 2 (Z) (PW9300; Bio-mol, for human cells), 20S-proteasome subunit beta 2 (Z) (PW8145; BIO TREND, for mouse cells); 20S proteasome subunit beta 1(Y) (PW8140; BIO TREND), 20S proteasome subunit beta 5 (PW8895; BIO TREND); PECAM Antibody clone MEC 13.3 (#550274; BD Pharmingen)."}, "[3]": {"system": "primary human fibroblasts", "assay": "Flow cytometry cell cycle / sub-G1 analysis", "type": "cell-based", "conditions": "at ranges of IC50", "protocol": "as §1\nMTT assays were done as previously described (Sasse, F. et al. Argyrins, immunosuppressive cyclic peptides from myxobacteria. I. Production, isolation, physico-chemical and biological properties. J Antibiot (Tokyo) 55, 543-51 (2002)). TUNEL staining of tissue sections was performed on 10 micrometer sections which were deparafinised and treated as recommended by the manufacturer. (In Situ Cell Death Detection Kit, Fluorescein; ROCHE, Cat #11 684 795 910). Flow cytometric analysis of cultured cells was done using a Becton Dickinson fluorescence cytometer as previously described (Malek, N. P. et al. A mouse knock-in model exposes sequential proteolytic pathways that regulate p27^Kip1 in G1 and S phase. Nature 413, 323-7 (2001)). Analysis of the distribution of cells in the cell cycle and the sub-G1 fraction was done using Cell Quest software. A histone-associated-DNA-fragments ELISA was used to determine the number of apoptotic cells according to manufacturers instructions (Roche #11 774425001)."}, "[4]": {"assay": "Body weight and tolerability of treated tumour bearing mice", "type": "in vivo"}, "[5]": {"system": "SW-480 (colon cancer)", "assay": "MIC (visual), serial dilution, SW-480", "type": "cell-based, human", "conditions": "minimal concentration of a serial dilution exhibiting a visual effect", "excerpt": "The following table summarizes the effects of argyrin-derivatives A to H on two cancer cell lines, H15 (cervix carcinoma) and SW-480 (colon cancer). In order to test the efficacy, a p27-GFP-clone was used."}},
  "note": "“Also recorded” adds a separate entry of the source. Numbered stars: 1 amine (or outer) side, 2 acyl side, 3 side chain; on linkers, the order of the positions; unused ones are H or OH. Square brackets hold non-standard residues; d marks the D form. Peptide text beside a SMILES is read from it. dAla(ψthiazole) = C[C@@H](N[*:1])c1nc(C(=O)[*:2])cs1; Trp(4-OMe) = COc1cccc2[nH]cc(C[C@H](N)C(=O)O)c12; Dha = C=C(N)C(=O)O; Sar = CNCC(=O)O",
  "data": [
    {"smiles": "C=C1NC(=O)[C@@H](C)NC(=O)CNC(=O)[C@H](Cc2c[nH]c3cccc(OC)c23)NC(=O)[C@H](Cc2c[nH]c3ccccc23)NC(=O)c2csc(n2)[C@@H](C)NC(=O)CN(C)C1=O", "note": "[Argyrin A] (cyclo(W[Trp(4-OMe)]G[dA][Dha][Sar][dAla(ψthiazole)]))", "values": [
      {"measurement": "caspase, trypsin and chymotrypsin like proteasome activities", "setting": "[1]", "value": "dose dependent inhibition"},
      {"measurement": "cellular p27^kip1 levels", "setting": "[2]", "value": "increase"},
      {"measurement": "cellular phenotype", "setting": "[3]", "value": "stopped to proliferate"},
      {"measurement": "discomfort, weight loss, disease / tolerability", "setting": "[4]", "value": "very well tolerated; also recorded: did not observe any signs of discomfort, weight loss"},
      {"measurement": "MIC (visual) SW-480", "setting": "[5]", "value": 4, "unit": "µg/mL"}
    ]}
  ]
}
